How the values were obtained:
Conditions in all cases: 48 h
P12-Ichikawa = test: AUC of viability dose-response curve (% viability x log10 dose units); higher = less sensitive
Method in brief: (§1)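 Leukemia cells adapted to each medium were seeded in 1536-well plates (500 or 1000 cells/well) and given library compounds in DMSO for 48 h at 37°C. The 11 threefold doses spanned 47 μM to 0.79 nM, and CellTiter-Glo One luminescence was normalised per plate to DMSO and cell-free wells before four-parameter log-logistic fitting on log10 dose. Area under the curve was integrated with the trapezoidal rule, scaling curves above full viability and removing curves that failed quality control.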

SEM cells [1] = test: as above
Method in brief: as §1

NOMO1 = test: as above
Method in brief: as §1

SEM cells [2] = test: cell viability relative to DMSO control; higher = less cytotoxic
Method in brief: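 Leukemia cells (NOMO1 or SEM, 500 cells/well; P12-Ichikawa, 1000 cells/well) were seeded in 5 μl in 1536-well plates after at least four passages of adaptation to each medium. They received library compounds in DMSO by pin dosing, 11 threefold points from 47 μM to 0.79 nM. Luminescence with CellTiter-Glo One was read after 48 h at 37°C. Viability is stated per plate relative to DMSO wells, with cell-free wells as background.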

[3] = RPMI 5 mM glucose + 10% dialyzed FBS
[4] = HPLM + 10% dialyzed FBS, 0.000781 µM
[5] = HPLM + 10% dialyzed FBS, 0.00234 µM
[6] = HPLM + 10% dialyzed FBS, 0.00702 µM
[7] = HPLM + 10% dialyzed FBS, 0.0211 µM
[8] = HPLM + 10% dialyzed FBS, 0.0632 µM
[9] = HPLM + 10% dialyzed FBS, 0.19 µM
[10] = HPLM + 10% dialyzed FBS, 0.569 µM
[11] = HPLM + 10% dialyzed FBS, 1.71 µM
[12] = HPLM + 10% dialyzed FBS, 5.12 µM
[13] = HPLM + 10% dialyzed FBS, 15.4 µM
[14] = HPLM + 10% dialyzed FBS, 46.1 µM

Structure (SMILES) | AUC of viability dose-response curve (P12-Ichikawa; HPLM + 10% dialyzed FBS) | AUC of viability dose-response curve (P12-Ichikawa; RPMI 5 mM glucose + 10% FBS) | AUC of viability dose-response curve (P12-Ichikawa; [3]) | AUC of viability dose-response curve (SEM cells [1]; HPLM + 10% dialyzed FBS) | AUC of viability dose-response curve (SEM cells [1]; RPMI 5 mM glucose + 10% FBS) | AUC of viability dose-response curve (SEM cells [1]; [3]) | AUC of viability dose-response curve (NOMO1; HPLM + 10% dialyzed FBS) | AUC of viability dose-response curve (NOMO1; RPMI 5 mM glucose + 10% FBS) | AUC of viability dose-response curve (NOMO1; [3]) | cell viability (SEM cells [2]; [4]) [%] | cell viability (SEM cells [2]; [5]) [%] | cell viability (SEM cells [2]; [6]) [%] | cell viability (SEM cells [2]; [7]) [%] | cell viability (SEM cells [2]; [8]) [%] | cell viability (SEM cells [2]; [9]) [%] | cell viability (SEM cells [2]; [10]) [%] | cell viability (SEM cells [2]; [11]) [%] | cell viability (SEM cells [2]; [12]) [%] | cell viability (SEM cells [2]; [13]) [%] | cell viability (SEM cells [2]; [14]) [%] | cell viability (SEM cells [2]; RPMI 5 mM glucose + 10% FBS, 0.000781 µM) [%] | cell viability (SEM cells [2]; RPMI 5 mM glucose + 10% FBS, 0.00234 µM) [%] | cell viability (SEM cells [2]; RPMI 5 mM glucose + 10% FBS, 0.00702 µM) [%] | cell viability (SEM cells [2]; RPMI 5 mM glucose + 10% FBS, 0.0211 µM) [%] | cell viability (SEM cells [2]; RPMI 5 mM glucose + 10% FBS, 0.0632 µM) [%] | cell viability (SEM cells [2]; RPMI 5 mM glucose + 10% FBS, 0.19 µM) [%] | cell viability (SEM cells [2]; RPMI 5 mM glucose + 10% FBS, 0.569 µM) [%] | cell viability (SEM cells [2]; RPMI 5 mM glucose + 10% FBS, 1.71 µM) [%] | cell viability (SEM cells [2]; RPMI 5 mM glucose + 10% FBS, 5.12 µM) [%] | cell viability (SEM cells [2]; RPMI 5 mM glucose + 10% FBS, 15.4 µM) [%] | cell viability (SEM cells [2]; RPMI 5 mM glucose + 10% FBS, 46.1 µM) [%]
COc1ccc([S+](=O)([O-])Nc2cc(-c3c(O)ccc4ccccc34)c(O)c3ccccc23)cc1 | 429 | 439 | 432 | 408 | 383 | 389 | 435 | 453 | 462 | 96.8 | 111 | 134 | 115 | 101 | 116 | 101 | 97 | 86.4 | 43.4 | 6.74 | 114 | 115 | 124 | 131 | 119 | 127 | 115 | 88.7 | 78.6 | 18.4 | 5.19
CC(c1cc2ccccc2s1)N(O)C(N)=O (stereo unspecified) | 456 | 460 | 458 | 463 | 459 | 448 | 474 | 459 | 425 | 112 | 130 | 123 | 118 | 129 | 136 | 132 | 120 | 119 | 116 | 73.1 |  |  |  |  |  |  |  |  |  |  | 

Reference: the supplement of paper PMC11451515
